According to patent US20210315831A1, “PREPARATION OF NANOSUSPENSION COMPRISING NANOCRYSTALS OF ACTIVE PHARMACEUTICAL INGREDIENTS WITH LITTLE OR NO STABILIZING AGENTS” (CENTRE NATIONAL DE LA RECHERCHE SCIENTIFIQUE, priority 2018, published 2021):
Read-outs that look alike come from different tables or passages of the source.

Assays:
white blood cells (WBC) = test: Hematological toxicity, white blood cell count in mice; type: in vivo, BALB/c female mice
Method: The drug schedule protocol was equivalent to the anticancer efficacy study. Blood samples were taken in the mice tail vein at 1, 12, 15, 17 and 22 days and transferred to Eppendorf tube containing 2 μL of EDTA for white blood cells (WBC) numbering using a MS9-5 (MS Pharmaceuticals, France).

CT26 colon cancer cells = test: In vitro cytotoxicity, MTT test, CT26 cells; conditions: Mus musculus
[1] = Plasma pharmacokinetic in mice after intravenous injection; conditions: i.v. 10 mg/kg ETO
[2] = test system: LLC1 Lewis lung cancer cells; test: cells; conditions: Mus musculus
[3] = test system: Murine carcinoma tumors CT26; test: Anticancer efficacy on subcutaneous CT26 tumors in mice; conditions: 10 mg/kg ETO d8, d9 and d11, d12
in vivo = conditions: female, BALB/c, mouse, plasma, iv, 10 mg/kg

**Q.** For `COc1cc([C@@H]2c3cc4c(cc3[C@@H](O[C@@H]3O[C@@H]5CO[C@@H](C)O[C@H]5[C@H](O)[C@H]3O)[C@H]3COC(=O)[C@H]23)OCO4)cc(OC)c1O` [Free Etoposide, etoposide], which “White blood cell count (10^9 cells/L), Days 1” value (white blood cells (WBC); day 1, taken as control before treatment) is on record?
**A.** 8.9 ± 2.3 10^9 cells/L

**Q.** And the “White blood cell count (10^9 cells/L), Days 12” value (white blood cells (WBC); day 12, last day of treatment, i.v. 10 mg/kg)?
**A.** 6.5 ± 4.4 10^9 cells/L

**Q.** And the “White blood cell count (10^9 cells/L), Days 15” value (white blood cells (WBC); day 15, i.v. 10 mg/kg)?
**A.** 11.6 ± 0.9 10^9 cells/L

**Q.** What about the “White blood cell count (10^9 cells/L), Days 17” value (white blood cells (WBC); day 17, i.v. 10 mg/kg) of the same compound?
**A.** 10.4 ± 1.3 10^9 cells/L

**Q.** What about the “White blood cell count (10^9 cells/L), Days 22” value (white blood cells (WBC); day 22, i.v. 10 mg/kg) of the same compound?
**A.** 11.3 ± 3.4 10^9 cells/L

**Q.** What about the IC50 (CT26 colon cancer cells; CT26, 48 h, read-out: CT26-IC50 (48 h) (μM)) of the same compound?
**A.** 11.3 ± 1.4 µM

**Q.** What about the IC50 (CT26 colon cancer cells; CT26, 48 h, read-out: IC 50 (48 h) (μg/mL)) of the same compound?
**A.** 8.99 µg/mL

**Q.** What about the IC50 (CT26 colon cancer cells; CT26, 72 h, read-out: CT26-IC50 (72 h) (μM)) of the same compound?
**A.** 5.6 ± 0.1 µM

**Q.** And the IC50 (CT26 colon cancer cells; CT26, 72 h, read-out: IC 50 (72 h) (μg/mL))?
**A.** 5.17 µg/mL

**Q.** What about the “Maximum amount in total mice plasma (μg/mL) ± SD (n = 6)” value [1] of the same compound?
**A.** 37.62 ± 0.85 µg/mL

**Q.** And the IC50 ([2]; LLC1, 48 h, read-out: LLC1-IC 50 (48 h) (μM))?
**A.** 1.66 ± 0.13 µM

**Q.** And the IC50 ([2]; LLC1, 72 h, read-out: LLC1-IC 50 (72 h) (μM))?
**A.** 1.05 ± 0.02 µM

**Q.** And the “Time for median tumor to reach 50 mm^3” value [3]?
**A.** 9.5

**Q.** And the “mice weight loss throughout the investigation” value [3]?
**A.** a decrease is observed

**Q.** And the “Mean body weight change, d17” value ([3]; second value of the cell, d17)?
**A.** +3.85 d17

**Q.** What about the “Mean body weight change (day of nadir)” value ([3]; value at nadir) of the same compound?
**A.** −3.40

**Q.** And the “Median Tumor Volume (mm^3 on day 12)” value ([3]; day 12)?
**A.** 69 mm^3

**Q.** And the AUC(0-t) (in vivo)?
**A.** 6300 ng·h/mL

**Q.** And the MRT (in vivo)?
**A.** 1.89 min

**Q.** What about the half-life (in vivo) of the same compound?
**A.** 4.89 min
